Results reported in patent publication US10774084B2, “Adenine derivatives and their use as UV-photoprotective agents” (UNIVERZITA PALACKEHO V OLOMOUCI, priority 2015, dated 2020).

Columns and labels:
[1] = tested on: Normal human dermal fibroblasts (NHDF); assay: In vitro phototoxicity test (neutral red) on NHDF; format: cell-based
Experimental: Phototoxic potential of test compound was determined by modified in vitro test validated phototoxicity evaluation (Spielmann H, Balls M, Dupuis J, Pape W J, Pechovitch G, de Silva O, Holzhiitter H G, Clothier R, Desolle P, Gerberick F, Liebsch M, Lovell W W, Maurer T, Pfannenbecker U, Potthast J M, Csato M, Sladowski D, Steiling W, Brantom P. The International EU/COLIPA In Vitro Phototoxicity Validation Study: Results of Phase II (Blind Trial). Part 1: The 3T3 NRU Phototoxicity Test. Toxicol In Vitro. 1998; 12:305-27). Normal human dermal fibroblasts (NHDF) were used as an in vitro model. Cells were isolated from tissue specimens obtained from healthy patients undergoing plastic surgery at the Department of Plastic and Aesthetic Surgery (University Hospital Olomouc). The use of skin tissue was in accordance with the Ethics Committee of the University Hospital and Faculty of Medicine and Dentistry, Palacky University, Olomouc and all patients signed written informed consent. Fibroblasts were used between the 2nd and 4th passage. For all experiments the fibroblasts were seeded onto 96-well plates at a density of 0.8×10^5 cells/ml (0.2 ml per well) of cultivation medium (DMEM supplemented with fetal calf serum (10%, v/v), penicillin ([…]) and streptomycin (100 U/ml)). Test substances included compounds number 1, 3, 9, 15 and 20. Compounds were dissolved in DMSO and then diluted in serum free medium (DMEM supplemented with penicillin ([…]) and streptomycin (100 U/ml)). After 24 h incubation was cultivation medium changed to serum free medium containing test compound or DMSO (negative control). The final applied concentrations range 3.9-125 μmol/l. As a control, serum free medium supplemented with appropriate concentration of DMSO (0.5%, v/v) was used. In parallel with test compound, chlorpromazine (CPZ; 0.8-50 μmol/l) was used as a known phototoxic compound. The test compound was in parallel applied on two 96-well plates with NHDF. After 60 minutes incubation with test compound medium was discarded, cells were washed two-times with PBS and PBS supplemented with glucose (1 mg/ml) was applied. A plate was then exposed to a non-cytotoxic dose of UVA radiation (5.0 J/cm^2) using a solar simulator SOL 500 (Dr. Hoenle Technology, Germany) equipped with a H1 filter transmitting wavelengths of 320-400 nm. Intensity of UVA radiation was evaluated before each irradiation by UVA-meter. A control (non-irradiated) plate was for the period of irradiation incubated in dark. After UVA exposure PBS with glucose was discarded and serum free medium was applied. After 24 hours (37° C., 5% CO2) cell damage was evaluated by neutral red (NR) incorporation into viable cells. Medium was discarded and NR solution (0.03% w/v, PBS) was applied. After 60 minutes NR solution was discarded, cells were fixed with a mixture of formaldehyde (0.5%, v/v) and CaCl2 (1%, m/v) in ratio 1:1 and then NR was dissolved in methanol (50%, v/v) with acetic acid (1%, v/v). After 5 minutes of intensive shaking absorbance was measured at 540 nm. Experiments were performed in four independent repetitions with use of cells from four donors to minimize individual sensitivity of donor cells. Phototoxic effect was evaluated as % of viability of control cells that was calculated from experimental data (absorbance) according to the following equation:
[formula] • AS . . . absorbance of sample (cells pre-incubated with test compound in serum free medium and irradiated) • AC . . . absorbance of control (cells pre-incubated with DMSO in serum free medium and irradiated) • AB . . . absorbance of background (extraction solution)

[2] = tested on: Triticum aestivum cv. Hereward leaf segments; assay: Senescence bioassay on detached wheat leaf segments (chlorophyll retention); details: for maximum effective concentration: 96 h in the dark; for activity (%) [10^−4 mol · l^−1 BAP = 100%]: at maximum effective concentration
Experimental: Seeds of winter wheat, Triticum aestivum cv. Hereward, were washed under running water for 24 hours and then sown on vermiculite soaked with Knop's solution. They were placed in the growth chamber at 25° C. with a 16/8 h light period at […]. After 7 days, the first leaf was fully developed and the second leaf had started to grow. A tip section of the first leaf, approximately 35 mm long, was removed from 5 seedlings and trimmed slightly to a combined weight of 100 mg. The basal ends of the five leaf tips were placed in the wells of a microtiter polystyrene plate containing 150 μL of the tested derivative solution each. The entire plate was inserted into a plastic box lined with paper tissues soaked in distilled water to prevent leaf sections from drying out. After 96 h incubation in the dark at 25° C., the leaves were removed and chlorophyll extracted by heating at 80° C. for 10 min in 5 mL of 80% ethanol (v/v). The sample volume was then restored to 5 mL by the addition of 80% ethanol (v/v). The absorbance of the extract was recorded at 665 nm. In addition, chlorophyll extracts from fresh leaves and leaf tips incubated in deionised water were measured. The results are means of five replicates and the entire test was repeated twice. […] The compounds to be tested were dissolved in dimethylsulfoxide (DMSO) and the solution brought up to 10^−3 M with distilled water. […] The activity obtained for 10^−4 M of BAP was postulated as 100%. Kinetin was used as the second standard. Newly prepared compounds generally exceeded the efficiency of standard (BAP) by 10% of its activity (Tab. 5).

Row | Compound | viability of NHDF cells ([1]; UVA+, 6.3 μmol/l) | viability of NHDF cells ([1]; UVA−, 25 μmol/l) | maximum effective concentration [2] | activity (%) [10^−4 mol · l^−1 BAP = 100%] [2] | NHDF viability ([1]; +UVA 5.0 J/cm^2, 3.9 μmol/l) | NHDF viability ([1]; +UVA 5.0 J/cm^2, 7.8 μmol/l) | NHDF viability ([1]; +UVA 5.0 J/cm^2, 15.6 μmol/l) | NHDF viability ([1]; +UVA 5.0 J/cm^2, 31.3 μmol/l) | NHDF viability ([1]; +UVA 5.0 J/cm^2, 62.5 μmol/l) | NHDF viability ([1]; +UVA 5.0 J/cm^2, 125 μmol/l) | NHDF viability ([1]; −UVA, 3.9 μmol/l) | NHDF viability ([1]; −UVA, 7.8 μmol/l) | NHDF viability ([1]; −UVA, 15.6 μmol/l) | NHDF viability ([1]; −UVA, 31.3 μmol/l) | NHDF viability ([1]; −UVA, 62.5 μmol/l) | NHDF viability ([1]; −UVA, 125 μmol/l)
1 | CN(C)CCCN1c2ccccc2Sc2ccc(Cl)cc21 [chlorpromazine, reference compound] | below 80 % of control | below 80% |  |  |  |  |  |  |  |  |  |  |  |  |  | 
2 | c1csc(CNc2ncnc3c2ncn3C2CCCO2)c1 (centres unmarked) [Compound 9, 6-(thiophen-2-ylmethylamino)-9-(tetrahydrofuran-2-yl)purine] |  |  | 10^−4 mol · l^−1 | 112 ± 5% | 97.8 % control | 102.3 % control | 100.8 % control | 105.9 % control | 102.8 % control | 106.3 % control | 100 % control | 103 % control | 100.5 % control | 106.7 % control | 107.9 % control | 108.4 % control
3 | Clc1nc(NCC2CCCO2)c2ncn(C3CCCO3)c2n1 (centres unmarked) [Compound 20, 2-chloro-6-(tetrahydrofuran-2-ylmethylamino)-9-(tetrahydrofuran-2-yl)purine] |  |  | 10^−4 mol · l^−1 | 127 ± 5% | 100.1 % control | 102.9 % control | 100.4 % control | 102.7 % control | 105.1 % control | 104.8 % control | 103.1 % control | 102.9 % control | 100.6 % control | 105.6 % control | 102 % control | 104 % control
4 | Clc1nc(NCc2ccco2)c2ncn(C3CCCO3)c2n1 (centres unmarked) [Compound 15, 2-chloro-6-furfurylamino-9-(tetrahydrofuran-2-yl)purine] |  |  |  |  | 100.1 % control | 101.5 % control | 102.6 % control | 102.9 % control | 103.3 % control | 97.3 % control | 100.3 % control | 103.5 % control | 104.3 % control | 105.4 % control | 106.3 % control | 101.2 % control
5 | c1nc(NCC2CCCO2)c2ncn(C3CCCO3)c2n1 (centres unmarked) [Compound 1, 6-(tetrahydrofuran-2-ylmethylamino)-9-(tetrahydrofuran-2-yl)purine] |  |  | 10^−4 mol · l^−1 | 125 ± 9% | 105.1 % control | 110.6 % control | 106.8 % control | 109.5 % control | 103.3 % control | 107.5 % control | 96.6 % control | 106.5 % control | 99.6 % control | 102.4 % control | 102.3 % control | 109.7 % control
6 | OCc1ccc(CNc2ncnc3c2ncn3C2CCCO2)o1 (centres unmarked) [Compound 3, 6-(5-hydroxymethylfuran-2-ylmethylamino)-9-(tetrahydrofuran-2-yl)purine] |  |  |  |  | 101.04 % control | 106.46 % control | 102.28 % control | 107.4 % control | 110.49 % control | 111.8 % control | 103 % control | 104.9 % control | 104.2 % control | 107.7 % control | 106.6 % control | 110.4 % control
